Entries after “also recorded” stand apart in the source; their conditions may differ.
Assays:
Human NPR-B = biological target: T1, Human NPR-B (Homo sapiens, UniProt P20594); test: Biacore SPR kinetic affinity binding to immobilized NPR-B
T1 construct: purchased R&D system
T1 sequence (P20594 23-458 limits assumed): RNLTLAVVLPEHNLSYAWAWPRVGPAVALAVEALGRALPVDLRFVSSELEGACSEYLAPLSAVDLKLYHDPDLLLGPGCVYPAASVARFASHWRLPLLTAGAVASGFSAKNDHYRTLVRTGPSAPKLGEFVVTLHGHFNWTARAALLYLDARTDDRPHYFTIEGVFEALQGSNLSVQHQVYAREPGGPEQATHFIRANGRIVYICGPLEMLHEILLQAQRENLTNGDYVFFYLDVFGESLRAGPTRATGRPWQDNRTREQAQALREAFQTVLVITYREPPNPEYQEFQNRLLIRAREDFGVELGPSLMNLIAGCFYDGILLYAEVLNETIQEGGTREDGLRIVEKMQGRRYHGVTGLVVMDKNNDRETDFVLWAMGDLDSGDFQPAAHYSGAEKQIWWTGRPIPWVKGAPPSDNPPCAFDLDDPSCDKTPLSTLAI
Description: The biological function of these purified protein was assayed for their stimulation of production of cGMP, using NPR-B receptor positive cell line, NIH/3T3 and NPR-B negative cell line HEK293 cells. The determination of cGMP was assay by ELISA using commercial CNP as standard curves. […] Surface preparation. NBR-B was immobilized at different levels in three flow cells via standard amine coupling, leaving Fc 1 unmodified to serve as a reference. All surface plasmon resonance (SPR) analysis was performed on a BIAcore 3000 system using series CM5 sensor chips. Data processing and analysis were performed using BIAevaluation software. All sensorgrams were double referenced by subtracting the response on a reference flow cell and a blank sample. Human NPR-B (R&D system) was covalently attached to a CM5 chip via amine coupling. A surface density of 6600 RU was used for measurements with natriuretic peptides Sequential injections of CNP (0.5-8 nM) were performed at a flow rate of […] (300 s for each), followed by a dissociation time of 900 s. […] Kinetic parameters were calculated assuming a simple 1:1 (Langmuir) binding. […] All SPR analysis was performed on a BIAcore 3000 system using series CM5 sensor chips. Data processing and analysis were performed using BIAevaluation software. All sensorgrams were double referenced by subtracting the response on a reference flow cell and a blank sample. Human NPR-B (R&D system) was covalently attached to a CM5 chip via amine coupling. A surface density of 3100 RU was used for measurements with natriuretic peptides Sequential injections of AMI263 (FC4-CNP) (0.125-2 nM) were performed at a flow rate of […] (300 s for each), followed by a dissociation time of 900 s. […] Kinetic parameters were calculated assuming a simple 1:1 (Langmuir) binding. […] All SPR analysis was performed on a BIAcore 3000 system using series CM5 sensor chips. Data processing and analysis were performed using BIAevaluation software. All sensorgrams were double referenced by subtracting the response on a reference flow cell and a blank sample. Human NPR-B (R&D system) was covalently attached to a CM5 chip via amine coupling. […] Kinetic parameters were calculated assuming a simple 1:1 (Langmuir) binding. […] All SPR analysis was performed on a BIAcore 3000 system using series CM5 sensor chips. Data processing and analysis were performed using BIAevaluation software. All sensorgrams were double referenced by subtracting the response on a reference flow cell and a blank sample. Human NPR-B (R&D system) was covalently attached to a CM5 chip via amine coupling. A surface density of 3100 RU was used for measurements with natriuretic peptides Sequential injections of AMI263 (FC4-CNP) (0.5-300 nM) were performed at a flow rate of […] (300 s for each), followed by a dissociation time of 900 s. […] Kinetic parameters were calculated assuming a simple 1:1 (Langmuir) binding. […] All SPR analysis was performed on a BIAcore 3000 system using series CM5 sensor chips. Data processing and analysis were performed using BIAevaluation software. All sensorgrams were double referenced by subtracting the response on a reference flow cell and a blank sample. Human NPR-B (R&D system) was covalently attached to a CM5 chip via amine coupling.

[1] = test system: NIH3T3 cells (cGMP secreted); test: EC50 for CNP-Fc constructs, cGMP ELISA of NIH3T3 supernatant; type: cell-based; settings: NIH3T3, 30 minutes, 1.8 mM IBMX, cGMP secreted by the cells; FIG. 25B
Description: EC50 for CNP-Fc described herein were measured by ELISA. 2.5E+05 NIH3T3 cells/well were plated. […] After 30 minutes, supernatant was collected for cGMP determined via ELISA. FIG. 25A illustrates a standard curve of cGMP.

[2] = background statement; cited from earlier work
[3] = test system: retinal ganglion cells (RGC); test: NMDA excitotoxicity mouse model: RGC count by retinal Flatmount; type: in vivo, C57BL/6)
Description: This study was for evaluating the effect of adeno-associated viral (AAV) vectors on retinal ganglion cell protection following damage caused via N-methyl-D-aspartate (NMDA) administration in the mouse. […] Groups 7 and 8 were added to test a higher concentration of MK-801. […] This study was conducted in wild type mice (Mus musculus, C57BL/6).
300 μL of the 5 mM NMDA stock was combined with 300 μL of sterile PBS and 1 μL as injected on Day 0 for a final concentration of 2.5 mM NMDA.
300 μL of the 5 mM NMDA stock as combined with 300 μL of sterile-filtered MK-801 and 1 μL was injected on Day 0 for a final concentration of 2.5 mM NMDA/100 μM MK-801.
300 μL of the 5 mM NMDA stock was combined with 300 μL of sterile PBS and 1 μL was injected on Day 0 for a final concentration of 2.5 mM NMDA.
On Day −28 or Day 0 based on the experimental design, mice were given buprenorphine 0.01-0.05 mg/kg subcutaneously (SQ). Animals were then tranquilized for the intravitreal injections with ketamine/xylazine or inhaled isoflurane and one drop of 0.5% proparacaine HCl was applied to both eyes. The conjunctiva was gently grasped with Dumont #4 forceps, and the injection was made using a 33 G needle and a Hamilton syringe. After dispensing the syringe contents, the syringe needle was slowly withdrawn. Following the injection procedure, 1 drop of Ofloxacin ophthalmic solution was applied topically to the ocular surface with eye lube.
Eyes were enucleated and immediately fixed in 4% paraformaldehyde in phosphate-buffered saline (PBS) and stored overnight at 4° C. The following day, the eyes were transferred to cold immunocytochemistry (ICC) buffer (PBS containing 0.5% BSA and 0.2% Tween 20) until processing. Using a dissecting microscope, the eye was carefully trimmed of extraneous tissue at the limbus and, using fine curved scissors, the anterior chamber was removed. Retinas in the eye cup were rinsed with cold ICC buffer. Eye cups were placed in cold ICC buffer containing 1/100 rat anti-CNP36 (Groups 3-6 only; resuspended at 0.5 mg/mL in PBS) for 3 hours at 4° C. Eye cups were then washed extensively and stained with 1/200 donkey anti-rat Cy3 and 1/1,000 DAPI for 2-3 hours at 4° C. Groups 1 and 2 were stained with 1/500 TUJ-1 and 1/1000 DAPI, while Groups 7 and 8 were incubated with 1/1,000 DAPI alone. Eye cups were washed extensively but gently with cold ICC buffer. Using fine curved scissors and an eyelash knife, the retina was detached from the optic nerve head and removed from the RPE/choroid. Radial cuts were then made toward the center and retinas were flat mounted, covered, and sealed. 2D fluorescent microscopy images were acquired using an Olympus Bx63 upright fluorescent microscope. […] Images at 20× were acquired in 4 quadrants and a central 248.1×325.7 μm region was analyzed for RGC counts using Olympus cellSens and ImageJ software.
Groups 1 and 2 were stained with DAPI and TUJ-1 and images were captured at 20× (FIG. 10A). RGCs were counted in four quadrants, and cells/mm2 were averaged across each group.
Groups 3-8 were stained for DAPI and four images were captured for each retina at 20× approximately 600 μm from the optic nerve head. RGCs were counted in a central 248.1×325.7 μm region and cells/mm2 were averaged over each group (FIG. 10C).
The statistical analyses were performed on the Group 3-8 RGC data (one-way ANOVA followed by multiple comparisons using the Dunnett statistical hypothesis comparison).

[4] = test system: retinal ganglion cells (RGC); test: NMDA excitotoxicity mouse model: RGC count by H&E histopathology; type: in vivo, C57BL/6); settings: for RGC #/HPF (400X): H&E, single animals, Group 2
Description: This study was for evaluating the effect of adeno-associated viral (AAV) vectors on retinal ganglion cell protection following damage caused via N-methyl-D-aspartate (NMDA) administration in the mouse. Injection volumes and treatment options can be found in Table 18. Groups 7 and 8 were added to test a higher concentration of MK-801. The tissues for bioanalysis were snap frozen whole instead of being homogenized. The methods of adding IBMX to whole blood were established and clarified. This study was conducted in wild type mice (Mus musculus, C57BL/6).
Following euthanasia, eyes of elected animals were processed for histological or immunological examination. The ODs of animal 519 (Group 5) and 629 (Group 6) were noted to have a very small lens, blood in the retina, and the eye was filled with a gel-like substance. […] For Groups 1 and 2, immediately following euthanasia, selected eyes were collected into 10% neutral buffered formalin. The eyes were placed in 70% ethanol the following day. The eyes were then processed to paraffin blocks for sectioning. Sagittal sections of each eye (5 μm thickness) were prepared for all animals. At least 3 slides containing a ribbon of approximately 5 sections were collected sequentially. The optic nerve was included in the sectioning. The slides were stained for hematoxylin and eosin (H&E) and examined using light microscopy. Retinal ganglion cells (RGC) were counted (Table 19 and FIG. 9C).

[5] = test system: TUJ-1+ and cone arrestin+ cells; test: NMDA excitotoxicity mouse model: immunohistochemistry (TUJ-1, cone arrestin); type: in vivo, C57BL/6); settings: Groups 1 and 2, Day 7, qualitative
Description: All eyes designated for immunohistochemistry (IHC) were enucleated, the approximate site of injection was marked, and eyes were fixed at 4° C. in 4% paraformaldehyde in separately labeled vials overnight. Eyes were then transferred into 0.1M phosphate buffer (PB), brought through a sequential sucrose gradient (10-30%, 1 hour each) followed by embedding in OCT medium and freezing on dry ice.
Negative controls were performed for the staining cocktail by utilizing only the secondary antibody. Five slides spanning the retina for each eye were stained. Two pictures per retinal cross-section—one at or near the injection site and one from a central region—were taken using an Olympus Bx63 upright fluorescent microscope and cellSens software. […] All groups had clear cone arrestin staining with some TUJ-1+ cells observed (FIG. 12B). No further staining or analysis was performed on cross-sections as the staining was not an informative endpoint.

Row | SMILES | ka (Human NPR-B; (FIG. 7C-7I)) | kd (Human NPR-B; (FIG. 7C-7I)) | ka (Human NPR-B; Table 32 summary of affinity) | kd (Human NPR-B; Table 32 summary of affinity) | EC50 values (rank order) [1] | half-life [2] | RGC protection by positive control ([3]; 100 μM MK-801) | RGC count, retinal Flatmount (Groups 1 and 2) ([3]; Group 2 ODs, NMDA + MK-801 co-injection IVT Day 0, DAPI and TUJ-1) | RGC count, retinal Flatmount (Groups 3-8) ([3]; Group 8 ODs, NMDA + 100 μM MK-801 co-injection IVT Day 0, DAPI) | P, RGC count NMDA+MK-801-treated (Group 8) versus NMDA-treated (Group 7 OD) eyes ([3]; one-way ANOVA, Dunnett, MK-801 100 μM) | mean RGC count, Group 2 versus Group 1 ([4]; H&E histopathology, ODs and OSs) | RGC #/HPF (400X) ([4]; L eye (OS, control eye, no NMDA)) | RGC #/HPF (400X) ([4]; R eye (OD, experimental eye: NMDA + MK-801)) | number of TUJ-1+ and cone arrestin+ cells between groups [5]
1 | CC[C@H](C)[C@@H]1NC(=O)[C@H](CCCNC(=N)N)NC(=O)[C@H](CC(=O)O)NC(=O)[C@H](CC(C)C)NC(=O)[C@H](CCCCN)NC(=O)[C@H](CC(C)C)NC(=O)CNC(=O)[C@H](Cc2ccccc2)NC(=O)[C@@H](NC(=O)CNC(=O)[C@H](CCCCN)NC(=O)[C@H](CO)NC(=O)[C@H](CC(C)C)NC(=O)CN)CSSC[C@@H](C(=O)O)NC(=O)CNC(=O)[C@H](CC(C)C)NC(=O)CNC(=O)[C@H](CO)NC(=O)[C@H](CCSC)NC(=O)[C@H](CO)NC(=O)CNC1=O [CNP-22, reference compound] | 1.31e7 | 4.74E-4 | 1.37E+07 | 4.74E−04 | CNP-22 ≡Fc4-CNP36>Aflibercept-Fc4-CNP36>Fc1-CNP36>>Fc4-CNP22 | only a few minutes | – | – | – | – | – | – | – | –
2 | C[C@]12N[C@H](Cc3ccccc31)c1ccccc12 [MK-801] | – | – | – | – | – | – | fully rescued the NMDA RGC loss phenotype | 9,000±500 cells/mm2 | 12,000±300 cells/mm2 | < 0.0001 | no differences in the mean RGC count | RGC #/HPF (400X) = 37; also recorded: RGC #/HPF (400X) = 35; also recorded: RGC #/HPF (400X) = 55; also recorded: RGC #/HPF (400X) = 38 | RGC #/HPF (400X) = 41; also recorded: RGC #/HPF (400X) = 31 | did not appear to be a difference

Reference: patent publication US20250099622A1, “COMPOSITIONS AND METHODS FOR EXPRESSING THERAPEUTICS” (priority 2022, published 2025)
